Consider six compounds from patent publication US11306087B2, “Inhibitors of KRAS G12C and methods of using the same” (Amgen Inc., priority 2017, dated 2022).

Assay [1] has as its target GDP-bound KRAS protein (aa 1-169), containing both G12C and C118A amino acid substitutions (Homo sapiens (Human), UniProt P01116, C118A/G12C). Description: Coupled Nucleotide Exchange Assay. Format: biochemical. Conditions: 5 min compound pre-incubation; inhibition of SOS-mediated nucleotide exchange; AlphaScreen. As to the method:
For compounds in Table 2, the following assay conditions were employed: Coupled Nucleotide Exchange Assay: Purified GDP-bound KRAS protein (aa 1-169), containing both G12C and C118A amino acid substitutions and an N-terminal His-tag, was pre-incubated with a compound dose-response titration for 5 min in assay buffer (25 mM HEPES pH 7.4, 10 mM MgCl2, and 0.01% Triton X-100). Following compound pre-incubation, purified SOS protein (aa 564-1049) and GTP (Roche 10106399001) were added to the assay wells and incubated for an additional 30 min. To determine the extent of inhibition of SOS-mediated nucleotide exchange, purified GST-tagged cRAF (aa 1-149), nickel chelate AlphaLISA acceptor beads (PerkinElmer AL108R), and AlphaScreen glutathione donor beads (PerkinElmer 6765302) were added to the assay wells and incubated for 5 minutes. The assay plates were then read on a PerkinElmer EnVision Multilabel Reader, using AlphaScreen® technology, and data were analyzed using a 4-parameter logistic model to calculate IC50 values.

The test system of assay [2] is Phosphorylation of ERK1/2 in MIA PaCa-2 cells. Description: Phospho-ERK1/2 MSD Assay. Format: cell-based. Conditions: Homo sapiens, 2 hours compound treatment, 10 ng/mL EGF for 10 min, read-out: p-ERK IC50 (MIA PaCa-2). The procedure:
Phospho-ERK1/2 MSD Assay: MIA PaCa-2 (ATCC® CRL-1420™) and A549 (ATCC® CCL-185™) cells were cultured in RPMI 1640 Medium (ThermoFisher Scientific 11875093) containing 10% fetal bovine serum (ThermoFisher Scientific 16000044) and 1× penicillin-streptomycin-glutamine (ThermoFisher Scientific 10378016). Sixteen hours prior to compound treatment, MIA PaCa-2 or A549 cells were seeded in 96-well cell culture plates at a density of 25,000 cells/well and incubated at 37° C., 5% CO2. A compound dose-response titration was diluted in growth media, added to appropriate wells of a cell culture plate, and then incubated at 37° C., 5% CO2 for 2 hours. Following compound treatment, cells were stimulated with 10 ng/mL EGF (Roche 11376454001) for 10 min, washed with ice-cold Dulbecco's phosphate-buffered saline, no Ca^2+ or Mg^2+ (ThermoFisher Scientific 14190144), and then lysed in RIPA buffer (50 mM Tris-HCl pH 7.5, 1% Igepal, 0.5% sodium deoxycholate, 150 mM NaCl, and 0.5% sodium dodecyl sulfate) containing protease inhibitors (Roche 4693132001) and phosphatase inhibitors (Roche 4906837001). Phosphorylation of ERK1/2 in compound-treated lysates was assayed using Phospho-ERK1/2 Whole Cell Lysate kits (Meso Scale Discovery K151DWD) according to the manufacturer's protocol. Assay plates were read on a Meso Scale Discovery Sector Imager 6000, and data were analyzed using a 4-parameter logistic model to calculate IC50 values.

Chain of GDP-bound KRAS protein (aa 1-169), containing both G12C and C118A amino acid substitutions (P01116 other isoform, or with tags, fused parts or gaps G12C/C118A): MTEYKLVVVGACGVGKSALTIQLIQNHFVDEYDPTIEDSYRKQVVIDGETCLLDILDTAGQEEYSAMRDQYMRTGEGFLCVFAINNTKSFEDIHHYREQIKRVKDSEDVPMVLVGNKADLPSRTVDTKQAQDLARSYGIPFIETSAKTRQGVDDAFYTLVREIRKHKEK

For the compound `C=CC(=O)N1[C@H](C)CN(c2nc(=O)n(-c3c(C(C)C)ncnc3C(C)C)c3nc(-c4c(O)cccc4F)c(Cl)cc23)C[C@@H]1C` [Example 20, 4-(4-Acryloyl-cis-3,5-dimethylpiperazin-1-yl)-6-chloro-1-(4,6-diisopropylpyrimidin-5-yl)-7-(2-fluoro-6-hydroxyphenyl)pyrido[2,3-d]pyrimidin-2(1H)-one], the IC50 in assay [1] was 34 nM; in assay [2], 22 nM.
For `C=CC(=O)N1C[C@H](C)N(c2nc(=O)n(-c3c(C)ccnc3C(C)C)c3nc(-c4c(O)cccc4F)c(Cl)cc23)C[C@H]1C` [Example 2, 4-((2S,5R,M)-4-Acryloyl-2,5-dimethylpiperazin-1-yl)-6-chloro-7-(2-fluoro-6-hydroxyphenyl)-1-(2-isopropyl-4-methylpyridin-3-yl)pyrido[2,3-d]pyrimidin-2(1H)-one] the same measures were 27 nM and 16 nM.
For the compound `C=CC(=O)N1C[C@H](C)N(c2nc(=O)n(-c3c(C(C)C)ncnc3C(C)C)c3nc(-c4c(N)cccc4F)c(Cl)cc23)C[C@H]1C` [Example 9, 4-((2S,5R)-4-Acryloyl-2,5-dimethylpiperazin-1-yl)-7-(2-amino-6-fluorophenyl)-6-chloro-1-(4,6-diisopropylpyrimidin-5-yl)pyrido[2,3-d]pyrimidin-2(1H)-one], the results for the IC50 in assay [1] and in assay [2] were 54 nM and 21 nM, respectively.
For `C=CC(=O)N1[C@H](C)CN(c2nc(=O)n(-c3c(C)ccnc3C(C)C)c3nc(-c4ccccc4F)c(Cl)cc23)C[C@@H]1C` (atropisomer, axis not shown; (M)) [Example 13, (M)-4-(4-Acryloyl-cis-3,5-dimethylpiperazin-1-yl)-6-chloro-7-(2-fluorophenyl)-1-(2-isopropyl-4-methylpyridin-3-yl)pyrido[2,3-d]pyrimidin-2(1H)-one] the same measures were 53 nM and 46 nM.
`C=CC(=O)N1C[C@H](C)N(c2nc(=O)n(-c3c(C)ccnc3C(C)C)c3nc(-c4ccccc4F)c(F)cc23)C[C@H]1C` [Example 4, 4-((2S,5R,M)-4-Acryloyl-2,5-dimethylpiperazin-1-yl)-6-fluoro-7-(2-fluorophenyl)-1-(2-isopropyl-4-methylpyridin-3-yl)pyrido[2,3-d]pyrimidin-2(1H)-one]: the IC50 in assay [1] turned out to be 206 nM; in assay [2] it was 102 nM.
As for `C=CC(=O)N1[C@H](C)CN(c2nc(=O)n(-c3c(C(C)C)ncnc3C(C)C)c3nc(-c4ccccc4F)c(Cl)cc23)C[C@@H]1C` [Example 19, 4-(4-Acryloyl-cis-3,5-dimethylpiperazin-1-yl)-6-chloro-1-(4,6-diisopropylpyrimidin-5-yl)-7-(2-fluorophenyl)pyrido[2,3-d]pyrimidin-2(1H)-one], the values for the IC50 in assay [1] and in assay [2] were 42 nM and 61 nM, respectively.
